Test results as given in ChEMBL document CHEMBL5370651, “Integrating Taxonomic and Chemical Diversity of Mangrove-Associated Ascomycetes to Discover or Repurpose Bioactive Natural Products” (J Nat Prod, 2023).
Converted amounts (≈) assume the structure as drawn.

Tests used:
[1] = target: T1, Tyrosine-protein phosphatase non-receptor type 1 (Homo sapiens) (UniProt P18031); experiment: (§1) Inhibition of human PTP1B (1 to 400 residues) using pNPP as substrate preincubated for 10 mins followed by substrate addition and measured after 20 mins
T1 sequence (whole entry): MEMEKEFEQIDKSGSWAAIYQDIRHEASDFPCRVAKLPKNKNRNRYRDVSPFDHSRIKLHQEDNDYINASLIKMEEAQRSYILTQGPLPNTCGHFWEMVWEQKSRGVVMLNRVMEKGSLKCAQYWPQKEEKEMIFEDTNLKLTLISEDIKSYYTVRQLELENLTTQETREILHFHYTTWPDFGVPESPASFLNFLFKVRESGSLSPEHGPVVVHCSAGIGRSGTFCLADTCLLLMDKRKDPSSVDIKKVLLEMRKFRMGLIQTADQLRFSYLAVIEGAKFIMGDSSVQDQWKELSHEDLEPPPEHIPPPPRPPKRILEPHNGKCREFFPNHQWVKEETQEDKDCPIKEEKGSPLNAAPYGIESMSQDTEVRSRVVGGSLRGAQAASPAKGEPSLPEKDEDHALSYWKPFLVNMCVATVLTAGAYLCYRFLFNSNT

[2] = target: T2, Tyrosine-protein phosphatase non-receptor type 1 (Homo sapiens, UniProt P18031); experiment: as §1
T2 sequence (P18031 whole entry): T1 sequence (whole entry)

Staphylococcus aureus = experiment: Antibacterial activity against Staphylococcus aureus assessed as reduction in bacterial growth incubated for 16 hrs by broth microdilution method; format: functional
[3] = system: Staphylococcus epidermidis; experiment: Antibacterial activity against Staphylococcus epidermidis 42R assessed as reduction in bacterial growth incubated for 16 hrs by broth microdilution method; format: functional
Acinetobacter baumannii = experiment: Antibacterial activity against pandrug-resistant Acinetobacter baumannii A564 assessed as bacterial growth inhibition at 50 ug/ml incubated for 16 hrs by broth microdilution method relative to control; format: functional; conditions: read-out: GI

inhibition [1] | IC50 [2] | SMILES | MIC (Staphylococcus aureus) | MIC [3] | inhibition of growth at 50 µg/mL (Acinetobacter baumannii)
Dose-Dependent Effect | 27 µM | CC[C@H](C)C[C@H](C)[C@@H](O)[C@@H](C)/C=C(\C)[C@@H](O)[C@@H](C)/C=C(\C)[C@@H](O)[C@@H](C)/C=C(\C)C=O |  |  | 
 |  | CCCCCCCC(=O)c1c(O)cc(O)cc1CC(=O)OCC [CYTOSPORONE B] | 18 µg/mL (≈ 55.8 µM) | 21 µg/mL (≈ 65.1 µM) | 51%
